These results are taken from patent publication US10961246B2, “18F-labelled folates as PET radiotracers” (MERCK & CIE, priority 2008, dated 2021).

The target in data set [1] is T1, folate receptor (Homo sapiens, UniProt P15328).
T1 construct: endogenous in cells; host or cells: KB tumor xenografts in male NMRI nu/nu mice
Nature of the data set: Ex vivo biodistribution study in mice bearing KB tumor xenografts, control vs folic acid blockade. Also on record: species or system male NMRI nu/nu mice. The conditions noted are these: ~2 MBq radiotracer; blockade group 200 μg natural folic acid 10 min prior; sacrificed 105 min post injection; KB tumor. The protocol:
(§1) γ-[^18F]fluoro-folic acid was applied in ex vivo biodistribution studies using male NMRI nu/nu mice bearing KB tumor xenografts. ˜2 MBq of the radiotracer were injected into each animal. In a blockade group, 200 μg natural folic acid was injected 10 min prior to the radiotracer. The animals were sacrificed 105 min post injection.

The test system of data set [2] is folate receptor. Described as above. Details: species or system male NMRI nu/nu mice. Here is the method:
as §1

Data set [3] concerns the target T1, folate receptor. Type of data set: in vivo, male NMRI nu/nu mice. The conditions noted are these: blockade 200 μg natural folic acid 10 min prior; scans 75-105 min post injection. The protocol:
(§2) In vivo PET imaging using the γ-[^18F]fluoro-folic acid was performed in male NMRI nu/nu mice bearing KB tumor xenografts. Ca. 10 MBq of the radiotracer were injected into each animal. In the blockade group, 200 μg natural folic acid was injected 10 min prior to the radiotracer. The PET scans were acquired from 75 min to 105 min post injection.
(§3) This pattern is consistent with the physiological distribution of the folate receptor and points out the high specificity of γ-[^18F]fluoro-folic acid.
(§4) FIG. 3 show representative series of normalized horizontal slices of whole body PET scans using γ-[^18F]fluoro-folic acid under control and blockade conditions. Arrows with circles indicate the tumor site and arrows with squares indicate the kidneys.

Data set [4] deals with folate receptor. Type of data set: in vivo, male NMRI nu/nu mice. The conditions noted are these: ca. 10 MBq; scans 75-105 min post injection. Here is the method: as §2, §3, §4

T1 sequence (P15328 25-234 limits assumed): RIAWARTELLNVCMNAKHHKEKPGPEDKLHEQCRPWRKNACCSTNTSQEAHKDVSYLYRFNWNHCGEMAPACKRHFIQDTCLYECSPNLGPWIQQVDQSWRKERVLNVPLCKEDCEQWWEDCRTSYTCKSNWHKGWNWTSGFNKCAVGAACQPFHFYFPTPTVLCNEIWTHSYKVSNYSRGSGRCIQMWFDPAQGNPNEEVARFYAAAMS

Turning to `Nc1nc2ncc(CNc3ccc(C(=O)N[C@@H](CC([18F])C(=O)O)C(=O)O)cc3)nc2c(=O)[nH]1` (stereo partly shown) [γ-[^18F]fluoro-folic acid, γ-[^18F]fluorofolic acid], in data set [1], the “specific blockade of radiotracer uptake in folate receptor-positive KB tumors” value was found to be 90.0%. Also, in data set [2] (control group vs blockade group), the “uptake in folate receptor-positive tissues, such as tumor and kidney (FIG. 2)” value was “high specific uptake”. Further, the “specific blockade of radiotracer uptake in the kidneys” value in data set [2] (~2 MBq radiotracer, blockade group 200 μg natural folic acid 10 min prior, sacrificed 105 min post injection, kidneys) is given as 86.0%. For the same compound, in data set [3], the “specificity of uptake in PET” value was “highly specific and blocked by natural folic acid”. In data set [4], the “uptake in liver cells (PET)” value is given as “radioactivity accumulation”, the “uptake in the kidney cortex (PET)” value was “high specific uptake” and the “uptake in the kidney medulla (PET)” value is reported as “no uptake”.
